pIC50: −log10 of the molar value. Values after ≈ are worked out from the molar mass of the structure shown. Values joined by “and” are separate entries in the source; they are usually repeats but may differ in a detail not shown here. Equal values may be shown once.
Legend:
[1] = tested on: Drug sensitive Mtb clinical strain #1; assay: MIC against clinical Mtb strains; type: cell-based; conditions: Mycobacterium tuberculosis, 7H9/glucose/glycerol/BSA/0.05% Tween 80, average of three
[2] = tested on: Drug sensitive Mtb clinical strain #2; assay: MIC against clinical Mtb strains; type: cell-based; conditions: Mycobacterium tuberculosis, 7H9/glucose/glycerol/BSA/0.05% Tween 80, average of three
[3] = tested on: M. tuberculosis (Mtb) H37Rv; assay: Microplate Alamar Blue Assay (MABA), GAS media, replicating Mtb; type: cell-based, Mycobacterium tuberculosis; conditions: for MIC90: Mycobacterium tuberculosis, GAS (glycerol-alanine-salt) media, replicating H37Rv, read-out: GAS media: replicating H37Rv Mtb: MIC 90
[4] = tested on: M. tuberculosis (Mtb) H37Rv; assay: Microplate Alamar Blue Assay (MABA), 7H12 media, replicating Mtb; type: cell-based; conditions: Mycobacterium tuberculosis, 7H12 media (no glycerol), read-out: 7H12 media: Replicating H37Rv Mtb: MIC 90
[5] = tested on: VERO kidney epithelial cells; assay: VERO toxicity assessment; conditions: for pIC50: Chlorocebus sabaeus, Vero, read-out: VERO: IC50

Compound	MIC90 [1]	MIC90 [2]	MIC90 [3] [µM]	in vitro activity against H37Rv TB ([3]; statement in words, medium not stated)	MIC90 [4] [µM]	pIC50 [5]	therapeutic window ([5]; statement in words)
O=[N+]([O-])c1cn2c(n1)OC[C@@H](OCc1ccc(OC(F)(F)F)cc1)C2 [PA-824, reference compound]	0.45 µM to 0.86 µM and 0.16 µg/mL to 0.31 µg/mL	> 13.9 µM and > 5 µg/mL	–	–	–	–	–
Cc1cn2c(C(=O)NCc3ccc(Oc4ccc(F)cc4)cc3)c(C)nc2s1 [ND-010081]	< 0.01 µM and < 0.025 µg/mL	< 0.025 µg/mL and < 0.01 µM	< 2	comparable to the current clinical candidates	< 2	5.00 to 5.70	sufficient therapeutic window for in vivo treatment
Cc1cn2c(C(=O)NCc3cccc(N4CCC(c5ccc(F)cc5)CC4)c3)c(C)nc2s1 [ND-020045]	–	–	< 2	–	2 to 10 (≈ 0.925 to 4.63 µg/mL)	4.49 to 4.70	–
